These results are taken from US20240252476A1, “LPA1 ANTAGONISTS FOR TREATING INTERSTITIAL LUNG DISEASE” (Bristol-Myers Squibb Company, priority 2022, published 2024).

A short description of data set [1]: Phase 1 multiple ascending dose study (Part B), blood pressure in healthy participants. Type of data set: in vivo, human. The following applies: MAD, 14-day treatment period. On the procedure: (§1) The study was performed in 3 parts in 112 healthy male and female participants, including 24 Japanese participants. Female participants were to be not of childbearing potential. The present study was designed to evaluate the safety and tolerability, PK, and exploratory PD of an oral suspension of Compound A. Parts A and B (Cohort B1 only) enrolled healthy participants and was conducted at a site in The Netherlands and Part B (Cohort B2 to B5) enrolled healthy non-Japanese participants and was conducted at a site in the United Kingdom (UK). Part C enrolled healthy Japanese participants and was conducted at the same site in the UK.
Part B was a MAD study in a planned number of 6 sequential dose escalation cohorts (10 mg QD, 30 mg QD, 30 mg BID, 60 mg BID, 125 mg BID, and ≤250 mg BID) of 8 healthy participants (6 active+2 placebo) each, under fasted conditions. However, Cohort B6 (≤250 mg BID) was cancelled because sufficient safety and PK data had been obtained at doses up to 125 mg BID. […]
Physical examinations, vital sign measurements (including orthostasis testing in Cohort A6, Cohort B3 to B5, and C1 to C3 at selected time points), 12-lead electrocardiogram (ECG), and clinical laboratory evaluations were performed at selected times throughout the study. […] Participants were closely monitored for adverse events (AEs). […]

Data set [2] in a line: Phase 1 multiple ascending dose study (Part C), blood pressure in healthy Japanese participants. Type of data set: in vivo, human. On the procedure:
as §1
Part C was a MAD study in 3 sequential dose escalation cohorts (30 mg BID, 60 mg BID, and 90 mg BID) of 8 healthy Japanese participants (6 active+2 placebo) each. Eligible participants in Cohorts C1 to C3 received study drug (Compound A or placebo) administered orally for 14 days.
Physical examinations, vital sign measurements (including orthostasis testing in Cohort A6, Cohort B3 to B5, and C1 to C3 at selected time points), 12-lead electrocardiogram (ECG), and clinical laboratory evaluations were performed at selected times throughout the study. In addition, Holter monitoring was performed for the first 24 hours post dose on Day 1 in Part A (not in FE/pH cohort), and also for the first 24 hours post dose on Day 1 and Day 14 in Parts B and C. Participants were closely monitored for adverse events (AEs). Blood samples were collected for up to 14 days (follow-up visit) after (last) study drug administration for PK analysis. In addition, blood and urine were collected for exploratory biomarker assessments and for biobanking of samples for potential analyses. Urine was collected for potential PK analysis for up to 96 hours after a single dose of Compound A or placebo was administered in the SAD part, and for up to 24 hours after the first (morning) dose of study drug on Day 1 and for up to 24 hours after the last (morning) dose of study drug on Day 14 in the MAD parts.

A further data set has as its system participants with IPF. Nature of the data set: Phase 2 study, IPF cohort: efficacy (ppFVC, FVC). Type of data set: in vivo, human. To be noted: for Rate of change in ppFVC over 26 weeks: 60-mg arm. On the procedure: A total of 278 participants with IPF were randomized and 276 participants were treated as of theinal analyses data cut-off (4 Aug. 2022). Male and female participants ≥40 years of age with IPF and percent predicted forced vital capacity (ppFVC) ≥40% and percent predicted DLCO (ppDLCO) ≥25%; diagnosed within 7 years of screening; having a centrally-read chest HRCT obtained at screening that was consistent with UIP or probable UIP, or having a lung biopsy consistent with UIP were eligible to enter the study. The mean baseline ppFVC for all subjects was 76.5%. In the primary IPF cohort, participants were randomized (1:1:1) to receive 30 mg or 60 mg Compound A or placebo (PBO) twice daily for 26 weeks. Participants were stratified by standard of care (SoC) IPF therapy (pirfenidone versus nintedanib versus none) and region (Japan versus Rest of World) at randomization.
The primary objective of the study was to determine the rate of change in ppFVC from baseline to Week 26. The primary objective was evaluated with a two estimand framework to handle the intercurrent event of dose reduction to 10 mg BID or matching PBO when pre-specified low BP criteria is met. The primary estimand is adopted to estimate treatment effect when dose reduction is implemented. The supplementary estimand is adopted to estimate the effect of treatment without dose reduction.
Analysis Strategy: The primary estimand was to evaluate the efficacy of Compound A at 30 mg or 60 mg twice daily, compared to PBO in IPF participants who met the enrollment criteria, with or without use of SoC. The rate of decline in ppFVC (%) from baseline to Week 26 was compared using the difference between each dose and PBO as a population level summary regardless of dose reduction or treatment discontinuation for any reason (treatment policy strategy).
Analysis Strategy: The supplementary estimand for the primary objective is to evaluate the efficacy of Compound A at 30 mg or 60 mg twice daily without dose reduction, compared to the PBO in IPF subjects who met the enrollment criteria, with or without use of SoC. The rate of decline in ppFVC (%) from baseline to Week 26 has been compared using the difference between each dose and PBO as a population level summary regardless of treatment discontinuation for any reason (treatment policy strategy). In the event of dose reduction, data collected after dose reduction will not be considered relevant to the treatment effect of interest and therefore, will be treated as missing (while-on-treatment strategy).

The next data set deals with participants with PPF. Nature of the data set: Phase 2 study, PPF cohort: efficacy (ppFVC, FVC). Type of data set: in vivo, human. To be noted: for Relative reduction: 60 mg v placebo. Here is the method:
(§2) A total of 123 participants with PPF were randomized. Participants (age ≥21 years) were randomized (1:1:1) to receive 30 mg or 60 mg Compound A or PBO twice daily for 26 weeks. […] Immunosuppressive medications (mycophenolate mofetil, mycophenolic acid, azathioprine and/or tacrolimus) were permitted only if dosing is stable for ≥6 months prior to screening. If receiving antifibrotic agents pirfenidone or nintedanib, patients had to receive a stable dosage for ≥3 months prior to screening and during the screening period; if not receiving pirfenidone or nintedanib, patients had to be naive to both drugs or not have received either 4 weeks prior to Day 1. A total of 47 (38.2%) subjects were receiving antifibrotic treatment (with or without immunosuppression therapy). Of those subjects, 34 were being treated with nintedanib and 13 with pirfenidone. Participants were stratified by usual interstitial pneumonia (UIP) pattern (presence versus absence) and background therapy (antifibrotics +/−ILD-targeted immunosuppression versus ILD-targeted immunosuppression alone versus none).UIP pattern was present in 52% of subjects and unclassifiable ILD was he most common disease categorization.
The study was not powered to detect statistical significance (no formal testing). No target effect size was defined in the study design. There were two estimand approaches for analysis:
Treatment Policy: Effect of treatment with dose reduction as part of treatment regimen.
While-On Treatment: Effect of treatment without dose reduction.
The main efficacy endpoint, rate of FVC decline (in […]) from baseline to wk-26 in the PPF cohort, was estimated using a linear mixed-effects model utilizing all FVC timepoints. It was analyzed under a primary estimand (utilizing all data, treatment policy strategy), and under supplementary estimand (utilizing all data up to the point of dose reduction, while-on-treatment strategy). Analysis was performed in the overall population as well as in sub-groups by 1) background anti-fibrotic treatment or not 2) UIP radiographic pattern (presence or not). The mean baseline ppFVC was 66.700 for the PPF cohort.

Data set [3] can be described thus: Phase 2 study, PPF cohort: safety and blood pressure reduction criteria. Format: in vivo, human. Here is the method: as §2
Patient is experiencing any of the following, confirmed by retest within 15 minutes: • Seated systolic blood pressure <85 mmHg • Seated diastolic blood pressure <55 mmHg • Orthostatic hypotension
Patient is experiencing symptoms that, in the investigator's opinion, could be associated with a reduction in blood pressure and is also experiencing at least one of the following, confirmed by retest within 15 minutes: • Seated systolic blood pressure <100 mmHg or seated diastolic blood pressure <60 mmHg • Decrease of seated systolic blood pressure of ≥20 mmHg from the previous visit or decrease of seated diastolic blood pressure of ≥10 mmHg from the previous visit • Orthostatic hypotension • Orthostatic tachycardia

Data set [4] is described as follows: Effect of single and multiple ascending doses of Compound B on blood pressure. Format: in vivo. An excerpt:
and is described in U.S. Patent Application Publication No. 2010/0311799. Single ascending dose of Compound B caused a drop in blood pressure starting ˜1.25 hr post dose (FIG. 5).

In a further data set the test system is patients with IPF. The following applies: cited from earlier work.
Another data set relates to patients with PPF. The following applies: 52-week study period; cited from earlier work.

Molecules are shown by their SMILES.

On to `CCCN(C)C(=O)OCc1c(-c2ccc(O[C@H]3CCC[C@H](C(=O)O)C3)c(C)n2)nnn1C` [Compound A, (1S,3S)-3-((2-methyl-6-(1-methyl-5-(((methyl(propyl)carbamoyl)-oxy)methyl)-1H-1,2,3-triazol-4-yl)pyridin-3-yl)oxy)cyclohexane-1-carboxylic acid], for which, in data set [1], the “Magnitude of BP reductions with repeated dosing” value is recorded as “no clear changes in the magnitude of BP reductions with repeated dosing”. Further, the “DBP, Baseline” value in data set [2] (Japanese MAD 30 mg BID (C1)) is reported as 8.8 ± 5.12 mmHg; in data set [2] (Japanese MAD 60 mg BID (C2)), 8.2 ± 10.40 mmHg; in data set [2] (Japanese MAD 90 mg BID), 8.0 ± 8.22 mmHg. Besides, the “DBP, Reduction” value in data set [2] (Japanese MAD 30 mg BID (C1)) was 72.2 ± 3.87 mmHg; in data set [2] (Japanese MAD 60 mg BID (C2)) it was 73.8 ± 6.18 mmHg; in data set [2] (Japanese MAD 90 mg BID) it was 70.7 ± 7.58 mmHg. Also, the “Dose dependence of BP reduction” value in data set [2] (Japanese MAD cohorts) was “no clear Compound A dose-dependent BP reduction trend”. Moreover, the “Treatment response vs PBO (rate of decline of ppFVC and FVC)” value in the data set with participants with IPF (60 mg BID, Week 26, overall population) is “favorable treatment responses”. The “Relative treatment benefit vs PBO (ppFVC)” value amounted to 113% in the data set on participants with IPF (60 mg BID, primary estimand, not on background SoC); 39% with participants with IPF (60 mg BID, primary estimand, on background SoC); 123% in the data set with participants with IPF (60 mg BID, supplementary estimand, not on background SoC); 44% in the data set with participants with IPF (60 mg BID, supplementary estimand, on background SoC). Further, the “Rate of change in ppFVC over 26 weeks” value in the data set with participants with IPF (treatment policy strategy) is on record as −1.2%; with participants with IPF (while-on-treatment strategy) it was −1.1%; in the data set with participants with PPF (30-mg arm, treatment policy strategy) it was −2.7%; with participants with PPF (30-mg arm, while-on-treatment strategy), −2.5%; with participants with PPF (60-mg arm, treatment policy strategy), −1.1%; with participants with PPF (60-mg arm, while-on-treatment strategy), −1.3%. Also, the results for the “Treatment difference in rate of change in ppFVC, 60-mg arm vs placebo” value in the data set with participants with IPF (treatment policy strategy) and in the data set on participants with IPF (while-on-treatment strategy) were 1.4% and 1.8%, respectively. Further, the Relative reduction in the data set on participants with PPF (Anti-fibrotic subgroup) is on record as 75%; in the data set with participants with PPF (No antifibrotic subgroup), 63%; with participants with PPF (Non UIP subgroup), 84%; in the data set with participants with PPF (UIP subgroup), 54%; in the data set on participants with PPF (overall) it was 69%. For the same compound, the “Treatment difference 60 mg v placebo in rate of decline in ppFVC” value in the data set on participants with PPF (Non UIP subgroup, baseline to Week 26) was determined as 3.80. Also, the “Treatment difference in rate of change in ppFVC, 60-mg vs placebo” value in the data set on participants with PPF (treatment policy strategy) was 3.2%; in the data set on participants with PPF (while-on-treatment strategy) it was 2.9%. In data set [3] (30 mg), the “Low BP thresholds ("events")” value worked out at 30%. Besides, the “Deaths due to TEAEs” value in data set [3] (30 mg (n = 40)) and in data set [3] (60 mg (n = 42)) was 0 no in each case. Besides, the Dizziness in data set [3] (30 mg (n = 40)) was determined as 0 no. The compound further came in with a Hypertension in data set [3] (30 mg (n = 40)) of 0 no. The “Discontinuations due to TEAEs” value in data set [3] (60 mg (n = 42)) turned out to be 0 no. For the same compound, the Dyspnea in data set [3] (60 mg (n = 42)) was determined as 0 no. In addition, the Rash in data set [3] (60 mg (n = 42)) worked out at 0 no. For the same compound, in data set [3] (60 mg (n = 42)), the Vomiting was found to be 0 no.

In the case of `Cc1noc(-c2ccc(-c3ccc(C4(C(=O)O)CC4)cc3)cc2)c1NC(=O)O[C@H](C)c1ccccc1` [Compound B, sodium (R)-1-(4′-(3-methyl-4-(((1-phenylethoxy)carbonyl)amino)isoxazol-5-yl)-[1,1′-biphenyl]-4-yl)cyclopropane-1-carboxylate], the “Normalization of blood pressure” value in data set [4] (multiple days of dosing (FIG. 6)) is approximately 3 days. Also, the “Start of drop in blood pressure post dose” value in data set [4] (single ascending dose (FIG. 5)) was approximately 1.25 h.

Turning to `COC(=O)c1ccc2c(c1)NC(=O)/C2=C(\Nc1ccc(N(C)C(=O)CN2CCN(C)CC2)cc1)c1ccccc1` [nintedanib], the “Decline in lung function” value with patients with IPF is reported as “significantly reduce the decline in lung function”. Moreover, the “Progression of lung fibrosis vs placebo (annual rate of decline in FVC)” value with patients with PPF is “slower progression of lung fibrosis than those who received placebo”.

Consider `Cc1ccc(=O)n(-c2ccccc2)c1` [pirfenidone], for which the “Decline in lung function” value in the data set with patients with IPF was “significantly reduce the decline in lung function”.
